Some test systems named below: NCI/ADR-RES ovarian; K-562 leukemia; HT29 colon; CCRF-CEM leukemia; MOLT-4 leukemia; SR leukemia; T-47D breast; HL-60(TB) leukemia; LOX IMVI melanoma; RPMI-8226 leukemia.
What all share (experiment): NCI tumour cell line growth inhibition, 48 h

The structures appear in SMILES notation.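 48-hour exposure; five concentrations; linearly interpolated endpoints. Here, GI50 denotes the concentration required for 50% inhibition of growth. At the TGI there is no net growth.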 A value given as a limit tells only on which side of the number the result lay.

Turning to `C=C(C=O)[C@@H]1CC[C@]2(C)[C@H](C(=O)C=C3[C@H]4C[C@](C)(C(=O)OC)CC[C@]4(C)CC[C@]32C)[C@@]1(C)CCC#N`, the GI50 in the assay on NCI/ADR-RES ovarian is 1880 nM; in the assay on K-562 leukemia, 1810 nM; in the assay on HT29 colon, 1120 nM; in the assay on CCRF-CEM leukemia, 483 nM; in the assay on MOLT-4 leukemia it was 985 nM; in the assay on SR leukemia it was 1020 nM. For the same molecule, the GI50 with T-47D breast was 899 nM; in the assay on HL-60(TB) leukemia, 1720 nM; with LOX IMVI melanoma it was 1340 nM; in the assay on RPMI-8226 leukemia, 942 nM. The TGI with NCI/ADR-RES ovarian was 5.92 µM; in the assay with K-562 leukemia it was > 100 µM; in the assay with HT29 colon, 2870 nM; in the assay on CCRF-CEM leukemia it was > 100 µM; with MOLT-4 leukemia, > 100 µM; in the assay on SR leukemia it was > 100 µM. Also, the TGI was > 100 µM in the assay on T-47D breast, 5.93 µM in the assay with HL-60(TB) leukemia, 2700 nM with LOX IMVI melanoma and 5.04 µM with RPMI-8226 leukemia.

Values taken from PubChem BioAssay (NCI).
